According to patent US6645715B1, “Artificial cornea” (University of Ottawa, priority 1998, dated 2003):

What was measured:
reconstructed corneas [1] = assay: RT-PCR of gene expression in SDS-treated reconstructed corneas; type: cell-based, human; conditions: 5% SDS in M199; reconstructed whole corneas
Protocol: Band intensities for the indicated genes were quantitated by a phosphoimager and were divided by the intensity of the corresponding GAPDH band. Corneas were treated with 5% SDS in medium for 1 or 3 minutes, then washed twice with medium. Total RNA was extracted at 1 hour after the SDS treatment, and RT-PCR was carried out for specific primers for various genes. Reverse transcription-polymerase chain reaction (RT-PCR) was used to examine changes in expression of the above genes in corneal epithelial cell lines compared to primary cells, and in artificial corneas compared to human corneas from the eye bank after exposure to a detergent SDS. The cells were exposed to 0.02% SDS in M199 for 2 minutes. Corneas were treated with 5% SDS in M199. Controls were dosed with M199 only. RT-PCR was performed on RNA from cells and corneas obtained at different time points after injury. Semi-quantitative analyses were conducted by introducing the housekeeping gene, glyceraldehyde-3-phosphate dehydrogenase (GAPDH) as an internal control and by Southern analysis. PCR products were sequenced to confirm their identity. […] However, these changes were more marked in the reconstructed whole corneas than in the epithelial monolayers.

reconstructed corneas [2] = assay: Responses of reconstructed corneas to aqueous test chemicals (wound, corneal transparency); type: cell-based, human; conditions: 10% SDS, 0.01% benzalkonium chloride solution
Protocol: Each cornea was exposed centrally to 100 μl of the test chemical for 10 min, after which the chemical was washed off with saline and the corneas were re-cultured for a further 3 days. The saline-treated cornea served as the control.

reconstructed corneas [3] = assay: Live-dead staining of reconstructed corneas after chemical exposure; type: cell-based, human; conditions: SDS; 0.01% benzalkonium chloride solution
Text: Live cells are green, while dying or dead cells are orange-red. […] C.

[4] = system: corneal epithelial cell lines and primary epithelial cells; assay: RT-PCR of mRNA expression in corneal epithelial cells after SDS exposure; type: cell-based, human
Text: Corneal epithelial cell lines were exposed to sodium dodecyl sulfate (SDS) to characterise the changes in mRNA expression of early response genes such as c-fos and c-jun, cytokines probably involved with corneal wound healing such as interleukins (IL-1a and IL-6), basic fibroblast growth factor (bFGF), vascular endothelial growth factor (VEGF) and epidermal growth factor (EGF), and matrix molecules that are elaborated during healing such as collagens types I, III and V. Reverse transcription-polymerase chain reaction (RT-PCR) was used to examine changes in expression of the above genes in corneal epithelial cell lines compared to primary cells, and in artificial corneas compared to human corneas from the eye bank after exposure to a detergent SDS. The cells were exposed to 0.02% SDS in M199 for 2 minutes. Corneas were treated with 5% SDS in M199. Controls were dosed with M199 only. RT-PCR was performed on RNA from cells and corneas obtained at different time points after injury. Semi-quantitative analyses were conducted by introducing the housekeeping gene, glyceraldehyde-3-phosphate dehydrogenase (GAPDH) as an internal control and by Southern analysis. PCR products were sequenced to confirm their identity. Baseline levels of the 10 mRNAs examined were established in control epithelial cells and corneas (n> or =6 for each time point). […] However, changes in MRNA expression for bFGF, VEGF, EGF and collagen III were non-significant.

human eye bank corneas = assay: RT-PCR of gene expression in human eye bank corneas after SDS exposure; type: cell-based; conditions: 5% SDS in M199
Protocol: Reverse transcription-polymerase chain reaction (RT-PCR) was used to examine changes in expression of the above genes in corneal epithelial cell lines compared to primary cells, and in artificial corneas compared to human corneas from the eye bank after exposure to a detergent SDS. The cells were exposed to 0.02% SDS in M199 for 2 minutes. Corneas were treated with 5% SDS in M199. Controls were dosed with M199 only. RT-PCR was performed on RNA from cells and corneas obtained at different time points after injury. Semi-quantitative analyses were conducted by introducing the housekeeping gene, glyceraldehyde-3-phosphate dehydrogenase (GAPDH) as an internal control and by Southern analysis. PCR products were sequenced to confirm their identity.

[5] = 0.02% SDS in M199 for 2 minutes, within 1 hour of injury, primary epithelial cells and cell lines

`CCCCCCCCCCCCOS(=O)(=O)[O-].[Na+]` [SDS, sodium dodecyl sulfate] was tested, and the “extent of changes in gene expression versus epithelial monolayers” value (reconstructed corneas [1]) was “more marked”, the “wound / change of corneal transparency” value (reconstructed corneas [2]; 100 μl centrally for 10 min, washed off with saline, re-cultured 3 days) was “caused wounds to the centre of the cornea” and the “healing of the wound” value (reconstructed corneas [2]; 100 μl for 10 min, re-cultured a further 3 days) was “still unhealed”. For the same compound, the “live-dead staining, epithelial cells” value (reconstructed corneas [3]) was “mostly dead and dying cells”, the “live-dead staining, stromal cells” value (reconstructed corneas [3]) was “orange-red dead or dying cells” and the “penetration into the stromal compartment” value (reconstructed corneas [3]) was “penetration of the detergent into the stroma”. The “IL-1a mRNA expression” value ([4]; 0.02% SDS for 2 minutes) was “increased expression”, the “IL-6 mRNA expression” value ([4]; 0.02% SDS for 2 minutes) was “increased expression” and the “changes in mRNA expression for EGF” value ([4]; 0.02% SDS for 2 minutes) was “non-significant”. For the same compound, the “changes in mRNA expression for VEGF” value ([4]; 0.02% SDS for 2 minutes) was “non-significant”, the “changes in mRNA expression for bFGF” value ([4]; 0.02% SDS for 2 minutes) was “non-significant” and the “changes in mRNA expression for collagen III” value ([4]; 0.02% SDS for 2 minutes) was “non-significant”. The “collagen I mRNA expression” value ([4]; 0.02% SDS for 2 minutes) was “increased expression”, the “collagen V mRNA expression” value ([4]; 0.02% SDS for 2 minutes) was “increased expression” and the “expression of c-fos, time course” value ([4]; 0.02% SDS for 2 minutes, 24 hours) was “returned to baseline levels by the end of 24 hours”. The “expression of c-jun, time course” value ([4]; 0.02% SDS for 2 minutes, until day 6) was “remained high until day 6 after injury”, the expression of c-fos [4, 5] was “significantly increased” and the expression of c-jun [4, 5] was “significantly increased”. For the same compound, the “changes in gene expression” value (human eye bank corneas) was “responded to SDS exposure with changes in gene expression”.
